Square brackets hold non-standard residues; d marks the D form. Peptide text beside a SMILES is read from it. d1Nal = N[C@H](Cc1cccc2ccccc12)C(=O)O; dNle = CCCC[C@@H](N)C(=O)O; dDap = NC[C@@H](N)C(=O)O
The compounds below were run on human red blood cells (assay: Hemolytic activity). Conditions: red cells of human, 1 h, 150.
Type: cell-based
Description: The percentage of hemolysis at 150 μM was determined for all compounds as previously described. Briefly, two-fold serial dilutions (2.35 to 150 μM) of compounds in PBS were mixed with a 0.5% v/v suspension of fresh human red blood cells (RBC) in the same buffer. After 1 h incubation at 37 °C, plates were centrifuged and aliquots of the supernatants were transferred to clear ELISA plates. Absorbance at 414 nm was determined and normalised with respect to a negative (PBS, 0%) and positive (melittin, 100%) control.

Q: With `CCCC[C@@H](NC(=O)[C@@H](CCCCN)NC(=O)[C@@H](Cc1cccc2ccccc12)NC(=O)[C@@H](Cc1cccc2ccccc12)NC(=O)[C@@H](Cc1ccccc1)NC(=O)[C@@H](Cc1cccc2ccccc12)NC(=O)[C@@H](CCCCN)NC(=O)[C@H](N)CCCCN)C(N)=O` [Compound 9, kk(1-nal)f(1-nal)(1-nal)k(nle)-NH2] (H-[dK][dK][d1Nal][dF][d1Nal][d1Nal][dK][dNle]-NH2; N-terminus assumed) as the compound, how does the “%H (% Hemolysis at 150 µM)” value read?
A: 20%

Q: `CCCC[C@@H](NC(=O)[C@@H](CCCCN)NC(=O)[C@@H](Cc1cccc2ccccc12)NC(=O)[C@@H](CN)NC(=O)[C@@H](Cc1ccccc1)NC(=O)[C@@H](Cc1cccc2ccccc12)NC(=O)[C@@H](CCCCN)NC(=O)[C@H](N)CCCCN)C(N)=O` [Compound 10, kk(1-nal)f(dap)(1-nal)k(nle)-NH2] (H-[dK][dK][d1Nal][dF][dDap][d1Nal][dK][dNle]-NH2; N-terminus assumed) was tested. Which “%H (% Hemolysis at 150 µM)” value did it give?
A: 28%

Q: `CCCC[C@@H](NC(=O)[C@@H](CCCCN)NC(=O)[C@@H](Cc1cccc2ccccc12)NC(=O)[C@@H](CCCC)NC(=O)[C@@H](Cc1ccccc1)NC(=O)[C@@H](Cc1cccc2ccccc12)NC(=O)[C@@H](CCCCN)NC(=O)[C@H](N)CCCCN)C(N)=O` [Compound 11, kk(1-nal)f(nle)(1-nal)k(nle)-NH2] (H-[dK][dK][d1Nal][dF][dNle][d1Nal][dK][dNle]-NH2; N-terminus assumed) was tested. Which “%H (% Hemolysis at 150 µM)” value did it give?
A: 33%

Q: With `CCCC[C@@H](NC(=O)[C@@H](CCCCN)NC(=O)[C@@H](Cc1cccc2ccccc12)NC(=O)[C@@H](Cc1ccccc1)NC(=O)[C@@H](Cc1ccccc1)NC(=O)[C@@H](Cc1cccc2ccccc12)NC(=O)[C@@H](CCCCN)NC(=O)[C@H](N)CCCCN)C(N)=O` [Compound 12, kk(1-nal)ff(1-nal)k(nle)-NH2] (H-[dK][dK][d1Nal][dF][dF][d1Nal][dK][dNle]-NH2; N-terminus assumed) as the compound, how does the “%H (% Hemolysis at 150 µM)” value read?
A: 74%

Q: Which “%H (% Hemolysis at 150 µM)” value does the source give for `CCCC[C@@H](NC(=O)[C@@H](CCCCN)NC(=O)[C@@H](Cc1cccc2ccccc12)NC(=O)[C@@H](CO)NC(=O)[C@@H](Cc1ccccc1)NC(=O)[C@@H](Cc1cccc2ccccc12)NC(=O)[C@@H](CCCCN)NC(=O)[C@H](N)CCCCN)C(N)=O` [Compound 13, kk(1-nal)fs(1-nal)k(nle)-NH2] (H-[dK][dK][d1Nal][dF][dS][d1Nal][dK][dNle]-NH2; N-terminus assumed) here?
A: 29%

Q: With `CCCC[C@@H](NC(=O)[C@@H](CCCCN)NC(=O)[C@@H](Cc1cccc2ccccc12)NC(=O)[C@H](NC(=O)[C@@H](Cc1ccccc1)NC(=O)[C@@H](Cc1cccc2ccccc12)NC(=O)[C@@H](CCCCN)NC(=O)[C@H](N)CCCCN)[C@H](C)O)C(N)=O` [Compound 14, kk(1-nal)ft(1-nal)k(nle)-NH2] (H-[dK][dK][d1Nal][dF][dT][d1Nal][dK][dNle]-NH2; N-terminus assumed) as the compound, how does the “%H (% Hemolysis at 150 µM)” value read?
A: 28%

Q: Which “%H (% Hemolysis at 150 µM)” value does the source give for `CCCC[C@@H](NC(=O)[C@@H](CCCCN)NC(=O)[C@@H](Cc1cccc2ccccc12)NC(=O)[C@@H](Cc1ccc(O)cc1)NC(=O)[C@@H](Cc1ccccc1)NC(=O)[C@@H](Cc1cccc2ccccc12)NC(=O)[C@@H](CCCCN)NC(=O)[C@H](N)CCCCN)C(N)=O` [Compound 15, kk(1-nal)fy(1-nal)k(nle)-NH2] (H-[dK][dK][d1Nal][dF][dY][d1Nal][dK][dNle]-NH2; N-terminus assumed) here?
A: 40%

Q: For `CCCC[C@@H](NC(=O)[C@@H](CCCCN)NC(=O)[C@@H](Cc1cccc2ccccc12)NC(=O)[C@H](NC(=O)[C@@H](Cc1ccccc1)NC(=O)[C@@H](Cc1cccc2ccccc12)NC(=O)[C@@H](CCCCN)NC(=O)[C@H](N)CCCCN)C(C)C)C(N)=O` [Compound 16, kk(1-nal)fv(1-nal)k(nle)-NH2] (H-[dK][dK][d1Nal][dF][dV][d1Nal][dK][dNle]-NH2; N-terminus assumed), which “%H (% Hemolysis at 150 µM)” value is on record?
A: 54%
